ChEMBL document CHEMBL5649169 (ChemMedChem, 2018)

How the values were obtained:
[1] = molecular target: Activin receptor type-1B (Homo sapiens) (UniProt P36896)
[2] = molecular target: AP-2 complex subunit beta (Homo sapiens) (UniProt P63010)
[3] = molecular target: ATPase family AAA domain-containing protein 3B (Homo sapiens) (UniProt Q5T9A4)
[4] = molecular target: ATP synthase F(0) complex subunit e, mitochondrial (Homo sapiens) (UniProt P56385)
[5] = molecular target: Bromodomain adjacent to zinc finger domain protein 1A (Homo sapiens) (UniProt Q9NRL2)
[6] = molecular target: Calmodulin-1 (Homo sapiens) (UniProt P0DP23)
[7] = molecular target: F-actin-capping protein subunit beta (Homo sapiens) (UniProt P47756)
[8] = molecular target: Cell division cycle protein 23 homolog (Homo sapiens) (UniProt Q9UJX2)
[9] = molecular target: Cyclin-dependent kinase 5 (Homo sapiens) (UniProt Q00535)
[10] = molecular target: Eukaryotic translation initiation factor 3 subunit E (Homo sapiens) (UniProt P60228)
[11] = molecular target: Dopamine beta-hydroxylase (Homo sapiens) (UniProt P09172)
[12] = molecular target: ATP-dependent RNA helicase DDX3X (Homo sapiens) (UniProt O00571)
[13] = molecular target: Eukaryotic translation initiation factor 2A (Homo sapiens) (UniProt Q9BY44)
[14] = molecular target: Eukaryotic translation initiation factor 4B (Homo sapiens) (UniProt P23588)
[15] = molecular target: Exocyst complex component 1 (Homo sapiens) (UniProt Q9NV70)
[16] = molecular target: Protein FAM83B (Homo sapiens) (UniProt Q5T0W9)
[17] = molecular target: Flap endonuclease 1 (Homo sapiens) (UniProt P39748)
[18] = molecular target: Guanine nucleotide-binding protein G(i) subunit alpha-2 (Homo sapiens) (UniProt P04899)
[19] = molecular target: Glutathione S-transferase omega-1 (Homo sapiens) (UniProt P78417)
[20] = molecular target: Heterogeneous nuclear ribonucleoprotein A/B (Homo sapiens) (UniProt Q99729)
[21] = molecular target: Malate dehydrogenase, mitochondrial (Homo sapiens) (UniProt P40926)
[22] = molecular target: Mediator of RNA polymerase II transcription subunit 23 (Homo sapiens) (UniProt Q9ULK4)
[23] = molecular target: Small ribosomal subunit protein uS17m (Homo sapiens) (UniProt Q9Y2R5)
[24] = molecular target: Cytochrome c oxidase subunit 2 (Homo sapiens) (UniProt P00403)
Nucleolin (Homo sapiens) = Nucleolin (Homo sapiens) (UniProt P19338)
Homo sapiens [25] = species on record: Homo sapiens
[26] = molecular target: Phosphoprotein associated with glycosphingolipid-enriched microdomains 1 (Homo sapiens) (UniProt Q9NWQ8)
Homo sapiens [27] = species on record: Homo sapiens; remark: listed apart in the source
[28] = molecular target: Phosphorylase kinase beta subunit (Homo sapiens) (UniProt Q93100)
[29] = molecular target: 5'-AMP-activated protein kinase subunit beta-2 (Homo sapiens) (UniProt O43741)
[30] = molecular target: 26S proteasome regulatory subunit 6B (Homo sapiens) (UniProt P43686)
[31] = molecular target: Transcriptional regulator protein Pur-beta (Homo sapiens) (UniProt Q96QR8)
Homo sapiens [32] = species on record: Homo sapiens; remark: listed apart in the source
[33] = molecular target: Ribonuclease H1 (Homo sapiens) (UniProt O60930)
[34] = molecular target: Large ribosomal subunit protein eL15 (Homo sapiens) (UniProt P61313)
[35] = molecular target: Large ribosomal subunit protein uL3 (Homo sapiens) (UniProt P39023)
[36] = molecular target: Large ribosomal subunit protein uL18 (Homo sapiens) (UniProt P46777)
[37] = molecular target: Large ribosomal subunit protein eL8 (Homo sapiens) (UniProt P62424)
Septin-7 (Homo sapiens) = Septin-7 (Homo sapiens) (UniProt Q16181)
[38] = molecular target: Serine hydroxymethyltransferase, mitochondrial (Homo sapiens) (UniProt P34897)
[39] = molecular target: High affinity cationic amino acid transporter 1 (Homo sapiens) (UniProt P30825)
[40] = molecular target: TGF-beta receptor type-1 (Homo sapiens) (UniProt P36897)
[41] = molecular target: Thioredoxin-related transmembrane protein 1 (Homo sapiens) (UniProt Q9H3N1)
[42] = molecular target: Non-receptor tyrosine-protein kinase TNK1 (Homo sapiens) (UniProt Q13470)
[43] = molecular target: Transportin-1 (Homo sapiens) (UniProt Q92973)
[44] = molecular target: TELO2-interacting protein 1 homolog (Homo sapiens) (UniProt O43156)
[45] = molecular target: Thioredoxin (Homo sapiens) (UniProt P10599)
[46] = molecular target: Serine/threonine-protein kinase ULK3 (Homo sapiens) (UniProt Q6PHR2)
Further: assay method not described here.

Sequence of Bromodomain adjacent to zinc finger domain protein 1A (Homo sapiens) (Q9NRL2 whole entry, the tested form may be a part): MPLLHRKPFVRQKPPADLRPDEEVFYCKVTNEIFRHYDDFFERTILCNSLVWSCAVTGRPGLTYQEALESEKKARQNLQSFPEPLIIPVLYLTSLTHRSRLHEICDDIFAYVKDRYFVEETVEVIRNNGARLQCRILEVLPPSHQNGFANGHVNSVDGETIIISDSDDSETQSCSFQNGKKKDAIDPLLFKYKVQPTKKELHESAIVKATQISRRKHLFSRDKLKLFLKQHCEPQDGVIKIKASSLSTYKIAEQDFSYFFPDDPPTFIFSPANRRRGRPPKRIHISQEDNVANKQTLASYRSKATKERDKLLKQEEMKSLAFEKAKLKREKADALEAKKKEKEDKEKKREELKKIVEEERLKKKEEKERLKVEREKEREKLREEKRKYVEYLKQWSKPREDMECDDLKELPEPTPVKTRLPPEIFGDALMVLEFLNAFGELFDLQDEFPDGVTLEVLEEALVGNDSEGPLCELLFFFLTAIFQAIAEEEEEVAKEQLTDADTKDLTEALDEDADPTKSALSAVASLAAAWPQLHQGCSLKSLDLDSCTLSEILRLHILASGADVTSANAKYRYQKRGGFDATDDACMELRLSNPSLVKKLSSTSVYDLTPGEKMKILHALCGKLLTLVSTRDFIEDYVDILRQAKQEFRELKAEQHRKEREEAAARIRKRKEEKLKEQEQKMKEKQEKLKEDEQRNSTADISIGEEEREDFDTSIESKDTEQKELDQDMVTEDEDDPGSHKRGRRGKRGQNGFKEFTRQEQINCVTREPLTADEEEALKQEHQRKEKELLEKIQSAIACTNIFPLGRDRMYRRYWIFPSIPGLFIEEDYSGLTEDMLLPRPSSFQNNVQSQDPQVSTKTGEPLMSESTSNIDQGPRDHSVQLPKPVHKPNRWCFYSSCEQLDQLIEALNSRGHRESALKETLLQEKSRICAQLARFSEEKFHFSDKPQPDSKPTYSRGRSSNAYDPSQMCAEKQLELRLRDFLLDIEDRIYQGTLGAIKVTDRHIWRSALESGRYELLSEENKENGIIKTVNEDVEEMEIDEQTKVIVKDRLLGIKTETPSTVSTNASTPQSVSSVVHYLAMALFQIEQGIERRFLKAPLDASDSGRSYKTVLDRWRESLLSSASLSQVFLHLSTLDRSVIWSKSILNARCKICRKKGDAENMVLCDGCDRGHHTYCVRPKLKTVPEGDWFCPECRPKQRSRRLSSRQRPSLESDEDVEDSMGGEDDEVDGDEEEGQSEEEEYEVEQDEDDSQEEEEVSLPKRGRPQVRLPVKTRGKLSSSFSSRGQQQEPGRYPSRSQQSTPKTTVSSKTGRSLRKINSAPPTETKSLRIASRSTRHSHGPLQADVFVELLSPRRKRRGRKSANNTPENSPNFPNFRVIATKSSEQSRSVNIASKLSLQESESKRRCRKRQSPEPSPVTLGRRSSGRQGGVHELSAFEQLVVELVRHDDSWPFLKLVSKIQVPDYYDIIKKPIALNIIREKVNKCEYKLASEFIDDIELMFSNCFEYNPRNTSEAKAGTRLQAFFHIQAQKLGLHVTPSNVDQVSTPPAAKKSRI
Sequence of Non-receptor tyrosine-protein kinase TNK1 (Homo sapiens) (Q13470 whole entry): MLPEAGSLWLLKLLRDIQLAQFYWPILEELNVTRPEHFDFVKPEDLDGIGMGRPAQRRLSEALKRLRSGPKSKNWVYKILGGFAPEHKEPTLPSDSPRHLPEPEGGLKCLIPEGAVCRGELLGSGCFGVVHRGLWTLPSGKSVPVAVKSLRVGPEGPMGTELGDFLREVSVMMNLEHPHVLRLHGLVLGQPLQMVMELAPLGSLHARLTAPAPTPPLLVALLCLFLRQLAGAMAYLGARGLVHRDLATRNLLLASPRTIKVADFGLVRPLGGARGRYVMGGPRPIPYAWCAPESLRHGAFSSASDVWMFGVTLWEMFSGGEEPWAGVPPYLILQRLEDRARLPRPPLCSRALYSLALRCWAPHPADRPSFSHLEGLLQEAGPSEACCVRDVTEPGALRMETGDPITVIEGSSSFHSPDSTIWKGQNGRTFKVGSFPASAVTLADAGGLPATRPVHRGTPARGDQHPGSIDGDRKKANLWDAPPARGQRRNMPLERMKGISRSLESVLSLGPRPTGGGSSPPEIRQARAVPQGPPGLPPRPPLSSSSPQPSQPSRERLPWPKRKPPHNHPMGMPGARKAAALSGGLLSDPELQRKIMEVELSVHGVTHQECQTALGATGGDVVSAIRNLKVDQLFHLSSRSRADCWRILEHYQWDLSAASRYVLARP
Sequence of Flap endonuclease 1 (Homo sapiens) (P39748 whole entry): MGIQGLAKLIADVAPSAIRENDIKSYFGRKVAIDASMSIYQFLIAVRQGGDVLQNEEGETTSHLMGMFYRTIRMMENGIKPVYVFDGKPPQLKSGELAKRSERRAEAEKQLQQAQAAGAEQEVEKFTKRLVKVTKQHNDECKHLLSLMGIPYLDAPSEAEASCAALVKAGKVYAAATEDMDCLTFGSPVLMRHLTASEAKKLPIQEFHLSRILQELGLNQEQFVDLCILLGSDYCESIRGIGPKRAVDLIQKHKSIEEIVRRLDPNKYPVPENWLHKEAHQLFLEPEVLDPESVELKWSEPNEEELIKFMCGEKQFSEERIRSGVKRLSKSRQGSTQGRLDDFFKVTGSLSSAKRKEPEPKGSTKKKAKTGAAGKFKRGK
Sequence of Eukaryotic translation initiation factor 2A (Homo sapiens) (Q9BY44 whole entry): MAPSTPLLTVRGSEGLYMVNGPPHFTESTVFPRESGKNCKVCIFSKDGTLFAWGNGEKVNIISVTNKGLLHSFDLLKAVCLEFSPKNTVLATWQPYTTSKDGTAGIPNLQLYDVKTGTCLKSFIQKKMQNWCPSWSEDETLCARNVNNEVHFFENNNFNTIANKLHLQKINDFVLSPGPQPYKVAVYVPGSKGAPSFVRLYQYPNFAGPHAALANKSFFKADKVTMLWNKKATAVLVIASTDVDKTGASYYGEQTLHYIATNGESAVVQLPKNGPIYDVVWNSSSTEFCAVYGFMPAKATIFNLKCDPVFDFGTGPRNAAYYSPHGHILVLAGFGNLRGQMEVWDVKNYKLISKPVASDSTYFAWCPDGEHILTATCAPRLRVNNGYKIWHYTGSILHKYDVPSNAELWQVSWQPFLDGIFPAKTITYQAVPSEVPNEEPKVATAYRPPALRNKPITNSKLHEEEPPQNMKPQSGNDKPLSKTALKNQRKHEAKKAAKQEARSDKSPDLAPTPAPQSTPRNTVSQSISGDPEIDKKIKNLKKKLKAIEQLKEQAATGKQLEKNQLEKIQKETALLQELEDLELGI
Sequence of Thioredoxin-related transmembrane protein 1 (Homo sapiens) (Q9H3N1 whole entry): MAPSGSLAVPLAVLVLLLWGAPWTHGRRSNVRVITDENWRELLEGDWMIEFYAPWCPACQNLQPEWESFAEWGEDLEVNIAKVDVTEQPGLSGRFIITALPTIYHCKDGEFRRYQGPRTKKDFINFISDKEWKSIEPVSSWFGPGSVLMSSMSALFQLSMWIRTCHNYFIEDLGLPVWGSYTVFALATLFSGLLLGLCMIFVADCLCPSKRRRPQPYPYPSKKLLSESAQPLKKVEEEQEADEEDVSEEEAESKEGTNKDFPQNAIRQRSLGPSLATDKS
Sequence of Eukaryotic translation initiation factor 4B (Homo sapiens) (P23588 whole entry): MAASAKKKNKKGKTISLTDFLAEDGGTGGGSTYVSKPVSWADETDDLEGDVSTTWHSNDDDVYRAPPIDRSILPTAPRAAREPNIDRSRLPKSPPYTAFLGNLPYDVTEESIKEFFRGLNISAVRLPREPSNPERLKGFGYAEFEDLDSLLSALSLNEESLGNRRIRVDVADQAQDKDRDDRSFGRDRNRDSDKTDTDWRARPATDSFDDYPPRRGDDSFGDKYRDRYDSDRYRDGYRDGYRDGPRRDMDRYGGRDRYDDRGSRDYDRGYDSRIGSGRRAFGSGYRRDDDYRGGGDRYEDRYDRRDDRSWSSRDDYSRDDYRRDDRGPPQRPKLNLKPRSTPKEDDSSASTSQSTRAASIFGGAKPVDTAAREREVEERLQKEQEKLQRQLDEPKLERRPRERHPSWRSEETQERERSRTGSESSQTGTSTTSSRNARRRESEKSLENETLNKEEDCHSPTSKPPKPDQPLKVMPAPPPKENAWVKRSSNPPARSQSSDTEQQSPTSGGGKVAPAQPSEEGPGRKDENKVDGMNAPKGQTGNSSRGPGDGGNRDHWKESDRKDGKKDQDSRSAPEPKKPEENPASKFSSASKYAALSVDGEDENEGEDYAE
Sequence of Dopamine beta-hydroxylase (Homo sapiens) (P09172 whole entry): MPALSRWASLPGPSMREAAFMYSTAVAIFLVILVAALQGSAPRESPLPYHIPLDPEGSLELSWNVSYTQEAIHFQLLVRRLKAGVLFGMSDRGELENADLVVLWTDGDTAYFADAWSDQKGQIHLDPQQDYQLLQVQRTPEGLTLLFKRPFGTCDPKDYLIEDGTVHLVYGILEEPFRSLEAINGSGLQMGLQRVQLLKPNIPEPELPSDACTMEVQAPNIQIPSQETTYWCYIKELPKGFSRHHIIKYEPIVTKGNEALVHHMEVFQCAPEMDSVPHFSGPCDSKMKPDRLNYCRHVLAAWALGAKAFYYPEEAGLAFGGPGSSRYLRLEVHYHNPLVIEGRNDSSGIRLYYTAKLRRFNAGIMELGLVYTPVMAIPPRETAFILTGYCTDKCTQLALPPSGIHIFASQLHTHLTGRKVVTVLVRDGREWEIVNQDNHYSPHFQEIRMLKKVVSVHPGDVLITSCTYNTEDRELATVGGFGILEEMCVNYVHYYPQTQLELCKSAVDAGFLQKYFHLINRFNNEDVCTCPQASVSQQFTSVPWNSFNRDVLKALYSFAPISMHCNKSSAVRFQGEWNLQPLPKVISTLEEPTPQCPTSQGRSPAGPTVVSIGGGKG
Sequence of Heterogeneous nuclear ribonucleoprotein A/B (Homo sapiens) (Q99729 whole entry): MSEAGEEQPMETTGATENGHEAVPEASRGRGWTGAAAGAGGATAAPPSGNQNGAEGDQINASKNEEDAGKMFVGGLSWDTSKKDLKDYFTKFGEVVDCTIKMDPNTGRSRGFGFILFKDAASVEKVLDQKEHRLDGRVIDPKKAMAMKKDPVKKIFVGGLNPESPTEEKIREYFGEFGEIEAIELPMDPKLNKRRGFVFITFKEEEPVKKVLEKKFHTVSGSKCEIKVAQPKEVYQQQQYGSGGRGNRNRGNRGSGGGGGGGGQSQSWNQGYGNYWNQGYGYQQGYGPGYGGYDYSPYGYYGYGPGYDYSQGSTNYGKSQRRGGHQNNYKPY

`Cc1ccc(C(=O)Nc2cccc(C(F)(F)F)c2)cc1Nc1nc(-c2cccnc2)nc2c1cnn2C` showed an ED50 [1] of 0.177 µM, an ED50 [2] of 11.9 µM and an ED50 [3] of 0.0809 µM. For the same compound, the ED50 [4] was 20 µM, the ED50 [5] was 0.532 µM and the ED50 [6] was 0.11 µM. The ED50 [7] was 8.9 µM, the ED50 [8] was 0.0535 µM and the ED50 [9] was 5.06 µM. It also gave an ED50 [10] of 24.5 µM, an ED50 [11] of 2.26 µM and an ED50 [12] of 3.01 µM. It also gave an ED50 [13] of 25.7 µM, an ED50 [14] of 0.449 µM and an ED50 [15] of 0.0112 µM. It also gave an ED50 [16] of 1380 µM, an ED50 [17] of 8.96 µM and an ED50 [18] of 0.335 µM. It also gave an ED50 [19] of 4.06 µM, an ED50 [20] of 0.0215 µM and an ED50 [21] of 0.0198 µM. It also gave an ED50 [22] of 4.89 µM, an ED50 [23] of 0.421 µM and an ED50 [24] of 0.449 µM. The ED50 (Nucleolin (Homo sapiens)) was 2.79 µM, the ED50 (Homo sapiens [25]) was 0.018 µM and the ED50 [26] was 16.8 µM. The ED50 (Homo sapiens [27]) was 3.66 µM, the ED50 [28] was 12.8 µM and the ED50 [29] was 0.0527 µM. It also gave an ED50 [30] of 6.14 µM, an ED50 [31] of 0.00796 µM and an ED50 (Homo sapiens [32]) of 3.57 µM. The ED50 [33] was 12.7 µM, the ED50 [34] was 0.425 µM and the ED50 [35] was 2.64 µM. For the same compound, the ED50 [36] was 0.862 µM, the ED50 [37] was 2.57 µM and the ED50 (Septin-7 (Homo sapiens)) was 3.34 µM. It also gave an ED50 [38] of 58.3 µM, an ED50 [39] of 4.06 µM and an ED50 [40] of 0.000384 µM. For the same compound, the ED50 [41] was 219 µM, the ED50 [42] was 18.8 µM and the ED50 [43] was 3.81 µM. For the same compound, the ED50 [44] was 4370 µM, the ED50 [45] was 13.1 µM and the ED50 [46] was 3.54 µM.

For `Cc1ccc(C(=O)Nc2cccc(C(F)(F)F)c2)cc1Nc1nc(-c2cccnc2)nc2nn(C)cc12`, the ED50 [1] was 0.0591 µM, the ED50 [2] was 0.331 µM and the ED50 [3] was 0.0188 µM. For the same compound, the ED50 [4] was 0.531 µM, the ED50 [5] was 0.0186 µM and the ED50 [6] was 0.213 µM. It also gave an ED50 [7] of 0.393 µM, an ED50 [8] of 2.59 µM and an ED50 [9] of 17.2 µM. The ED50 [10] was 0.512 µM, the ED50 [11] was 3.14 µM and the ED50 [12] was 0.00683 µM. The ED50 [13] was 0.0386 µM, the ED50 [14] was 0.0001 µM and the ED50 [15] was 0.0794 µM. For the same compound, the ED50 [16] was 0.254 µM, the ED50 [17] was 1.02 µM and the ED50 [18] was 0.13 µM. The ED50 [19] was 0.0945 µM, the ED50 [20] was 1.36 µM and the ED50 [21] was 0.0533 µM. The ED50 [22] was 4.73 µM, the ED50 [23] was 0.0305 µM and the ED50 [24] was 0.153 µM. The ED50 (Nucleolin (Homo sapiens)) was 30.3 µM, the ED50 (Homo sapiens [25]) was 0.0558 µM and the ED50 [26] was 1.77 µM. It also gave an ED50 (Homo sapiens [27]) of 17.5 µM, an ED50 [28] of 0.384 µM and an ED50 [29] of 0.0168 µM. The ED50 [30] was 0.508 µM, the ED50 [31] was 0.0202 µM and the ED50 (Homo sapiens [32]) was 0.061 µM. For the same compound, the ED50 [33] was 385 µM, the ED50 [34] was 0.0592 µM and the ED50 [35] was 10.4 µM. The ED50 [36] was 11.5 µM, the ED50 [37] was 9.78 µM and the ED50 (Septin-7 (Homo sapiens)) was 3.21 µM. It also gave an ED50 [38] of 0.345 µM, an ED50 [39] of 1.68 µM and an ED50 [40] of 0.029 µM. It also gave an ED50 [41] of 131 µM, an ED50 [42] of 0.064 µM and an ED50 [43] of 0.464 µM. For the same compound, the ED50 [44] was 0.00118 µM, the ED50 [45] was 11.4 µM and the ED50 [46] was 0.0784 µM.
